Experimental data: PMC6116703, “Ethenesulfonyl fluoride derivatives as telomerase inhibitors: structure-based design, SAR, and anticancer evaluation in vitro” (Journal of Enzyme Inhibition and Medicinal Chemistry, 2018)
Like-named read-outs stand apart in the source and are kept apart here.

Tests used:
Type in all cases: cell-based
human melanoma cell A375 = test: Cell proliferation (MTT) assay, A375
Description: (§1) The antiproliferative activities evaluation was conducted by using a modified procedure as described in the literature. Briefly, target tumour cells were grown to log phase in RPMI 1640 medium supplemented with 10% fetal bovine serum. After diluting to 3 × 10^4 cells mL^−1 with the complete medium, 100 µL of the obtained cell suspension was added to each well of 96-well culture plates. The subsequent incubation was performed at 37 °C, 5% CO2 atmosphere for 24 h before subjecting to antiproliferation assessment. The tested samples at pre-set concentrations were added to six wells with Doxorubicin (AMD) co-assayed as a positive reference. After 48 h of exposure period, 25 µL of PBS containing 2.5 mg·mL^−1 of MTT was added to each well. After 4 h, the medium was replaced by 150 µL DMSO to dissolve the purple formazan crystals produced. The absorbance at 570 nm of each well was measured using an ELISA plate reader. The data represented the mean of three experiments in triplicate and were expressed as means ± SD using Student’s test.

[1] = tested on: human breast cancer cell MDA-MB-231; test: Cell proliferation (MTT) assay, MDA-MB-231; conditions: antiproliferative, MTT, 48 h exposure; read-out: IC50 MDA-MB-231
Description: as §1

[2] = tested on: human hepatoma cell SMMC-7721; test: Cell proliferation (MTT) assay, SMMC-7721; conditions: read-out: IC50 SMMC-7721
Description: as §1

[3] = antiproliferative, MTT, 48 h exposure, read-out: IC50 A375
[4] = antiproliferative, MTT, 48 h exposure

SMILES	IC50 (human melanoma cell A375; [3]) [µM]	IC50 [1] [µM]	IC50 [2, 4] [µM]	IC50 ([2]; Homo sapiens, SMMC-7721, 48 h) [µM]	IC50 (human melanoma cell A375; Homo sapiens, A-375, 48 h, read-out: IC50 A375, antiproliferative, MTT, 48 h exposure) [µM]
O=S(=O)(F)/C=C/c1ccc(Oc2ccccc2)cc1 [Compound 3]	27 ± 0.82	31.8 ± 1.44			
COc1ccc(/C=C/S(=O)(=O)F)cc1 [Compound 4]	16.9 ± 1.22	24.7 ± 2.15	73.8 ± 1.7		
CC(=O)c1ccc(/C=C/S(=O)(=O)F)cc1 [Compound 11]	10.6 ± 0.9	5.66 ± 0.28	65.8 ± 1.79		
CCOC(=O)c1ccc(/C=C/S(=O)(=O)F)cc1 [Compound 14]	50 ± 1.78	3.6 ± 0.3	27 ± 1.01		
COc1cccc(/C=C/S(=O)(=O)F)c1 [Compound 16]	21.1 ± 0.87	28.5 ± 1.78	45.6 ± 1.29		
O=S(=O)(F)/C=C/c1cccc(Br)c1 [Compound 19]	20.1 ± 0.9	12.1 ± 1.52			
COc1ccccc1/C=C/S(=O)(=O)F [Compound 23]	25.3 ± 1.33	33.8 ± 2.89			
Cc1ccccc1/C=C/S(=O)(=O)F [Compound 24]	24.5 ± 1.55	41.8 ± 2.97	52.8 ± 1.44		
Cc1ccc(/C=C/S(=O)(=O)F)c(C)c1 [Compound 27]	7.83 ± 0.4	39.8 ± 2.55	50.7 ± 1.82		
Cc1cc(C)cc(/C=C/S(=O)(=O)F)c1 [Compound 28]	10.2 ± 0.75	20.6 ± 2.11	16.7 ± 0.65		
Cc1cc(/C=C/S(=O)(=O)F)ccc1Br [Compound 29]	14.3 ± 0.91	16.9 ± 0.87			
O=S(=O)(F)/C=C/c1cccc2ccccc12 [Compound 30]	28 ± 1.31	25.1 ± 0.99	2.29 ± 0.17		
O=S(=O)(F)/C=C/c1ccc(F)cc1F [Compound 32]	12.3 ± 0.41	16.1 ± 0.41	27 ± 0.9		
O=S(=O)(F)/C=C/c1cccc(O)c1 [Compound 34]	5.37 ± 0.6	23.4 ± 0.88	23 ± 0.45		
O=S(=O)(F)/C=C/c1ccccc1O [Compound 35]	7.41 ± 0.77	7.41 ± 0.33	36.5 ± 0.7		
O=Cc1ccc(/C=C/S(=O)(=O)F)o1 [Compound 37]	9.09 ± 0.81	21.5 ± 1.29	35.1 ± 0.49		
O=S(=O)(F)/C=C/c1cccc2c1oc1ccccc12 [Compound 38]	40.8 ± 1.39	83.2 ± 2.91			
O=S(=O)(F)/C=C/c1ccsc1 [Compound 41]	14.6 ± 1.2	10.6 ± 0.46	28.8 ± 0.75		
Cc1ccc(S(=O)(=O)n2ccc3cc(/C=C/S(=O)(=O)F)ccc32)cc1 [Compound 45]				15.6 ± 0.78	8.61 ± 0.28
O=S(=O)(F)/C=C/C=C/c1ccc(Br)cc1 [Compound 51]	42 ± 1.6	20.9 ± 1.09	31.2 ± 1.33		
O=S(=O)(F)/C=C/C=C/c1ccc(C(F)(F)F)cc1 [Compound 52]	13.3 ± 0.87	15.3 ± 0.82	24.3 ± 1.19		
O=S(=O)(F)/C=C/C=C/c1ccccc1Cl [Compound 53]	17.5 ± 0.98	28.5 ± 1.14	57.3 ± 2.01		
O=S(=O)(F)/C=C/C=C/c1ccccc1C(F)(F)F [Compound 54]	17.5 ± 1.52	28.5 ± 1.16	19 ± 0.71		
O=Cc1cccc(/C=C/S(=O)(=O)F)c1 [Compound 60]	10.7 ± 0.8				
CSc1ccc(/C=C/S(=O)(=O)F)cc1 [Compound 64]	23.9 ± 1.37	38.3 ± 0.9			
Cc1ccc(/C=C/S(=O)(=O)F)cc1 [Compound 65]	32.7 ± 1.22	30.5 ± 1.29			
O=S(=O)(F)/C=C/c1ccccc1Cl [Compound 78]	26.3 ± 2.35	35.2 ± 1.28			
O=S(=O)(F)/C=C/c1ccc(C(F)(F)F)nc1 [Compound 79]	23 ± 1.75				
